# Test results reported in publication PMC10311525, “Restricting Promiscuity of Plant Flavonoid 3′-Hydroxylase and 4′-O-Methyltransferase Improves the Biosynthesis of (2S)-Hesperetin in E. coli” (Journal of Agricultural and Food Chemistry, 2023).
# How the values were obtained:
# Assay in all cases: whole-cell conversion, HPLC
# Type in all cases: cell-based
# MpOMT [1] = target: T1, MpOMT (Mentha x piperita, UniProt Q6VMV8, F133A); details: 100 mg/L fed, 12 h, 23 °C; product (2S)-hesperetin
# T1 construct: gene OMT4
# MpOMT [2] = target: T2, MpOMT (Mentha x piperita, UniProt Q6VMV8, S142A); details: 100 mg/L fed, 12 h, 23 °C; product (2S)-hesperetin
# T2 construct: gene OMT4
# trThF3′H with CPR = target: T3, trThF3′H with CPR (Tricyrtis hirta, UniProt B9A9Y6); details: 100 mg/L fed, 12 h, 23 °C; product (2S)-eriodictyol; full-length CPR co-expressed
# T3 construct: gene F3'H; 24-aa N-terminally truncated F3'H co-expressed with full-length Arabidopsis thaliana CPR from pETDuet-1 (pGH10) in E. coli BL21(DE3); whole-cell conversion; with NADPH--cytochrome P450 reductase 2 (Arabidopsis thaliana)
# T3 sequence (B9A9Y6 25-505): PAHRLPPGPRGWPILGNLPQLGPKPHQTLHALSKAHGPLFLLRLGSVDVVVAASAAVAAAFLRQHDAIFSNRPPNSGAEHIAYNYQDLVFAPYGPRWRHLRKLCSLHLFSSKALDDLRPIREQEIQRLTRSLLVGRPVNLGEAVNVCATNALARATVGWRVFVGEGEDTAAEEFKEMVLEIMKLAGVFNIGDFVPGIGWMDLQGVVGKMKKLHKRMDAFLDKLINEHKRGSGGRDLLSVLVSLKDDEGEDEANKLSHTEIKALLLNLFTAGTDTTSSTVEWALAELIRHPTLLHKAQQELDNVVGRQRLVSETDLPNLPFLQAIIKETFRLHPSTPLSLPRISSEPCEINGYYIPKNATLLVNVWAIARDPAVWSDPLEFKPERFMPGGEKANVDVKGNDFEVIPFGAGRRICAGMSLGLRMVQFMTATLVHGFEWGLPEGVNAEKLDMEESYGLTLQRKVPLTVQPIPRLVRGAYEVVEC
# T3 sequence (Q9SUM3 whole entry partner, the tested form may be a part): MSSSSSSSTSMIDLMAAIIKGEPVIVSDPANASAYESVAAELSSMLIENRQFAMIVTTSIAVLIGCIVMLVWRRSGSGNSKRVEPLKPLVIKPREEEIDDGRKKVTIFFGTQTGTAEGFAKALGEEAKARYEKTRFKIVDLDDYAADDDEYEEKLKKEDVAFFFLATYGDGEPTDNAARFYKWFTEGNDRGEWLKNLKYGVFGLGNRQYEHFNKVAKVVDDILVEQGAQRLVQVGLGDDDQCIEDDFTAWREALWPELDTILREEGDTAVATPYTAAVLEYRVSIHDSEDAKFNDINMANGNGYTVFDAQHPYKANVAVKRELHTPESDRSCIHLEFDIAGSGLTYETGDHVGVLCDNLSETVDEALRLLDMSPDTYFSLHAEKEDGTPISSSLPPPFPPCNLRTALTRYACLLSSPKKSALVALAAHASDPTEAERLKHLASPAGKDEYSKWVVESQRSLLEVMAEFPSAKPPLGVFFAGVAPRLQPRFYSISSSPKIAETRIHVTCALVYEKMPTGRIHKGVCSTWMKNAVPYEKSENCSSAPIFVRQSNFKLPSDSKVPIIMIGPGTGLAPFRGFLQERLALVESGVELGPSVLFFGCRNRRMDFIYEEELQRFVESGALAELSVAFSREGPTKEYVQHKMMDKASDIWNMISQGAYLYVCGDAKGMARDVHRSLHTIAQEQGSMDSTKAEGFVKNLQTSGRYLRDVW
# T2 sequence (Q6VMV8 whole entry S142A): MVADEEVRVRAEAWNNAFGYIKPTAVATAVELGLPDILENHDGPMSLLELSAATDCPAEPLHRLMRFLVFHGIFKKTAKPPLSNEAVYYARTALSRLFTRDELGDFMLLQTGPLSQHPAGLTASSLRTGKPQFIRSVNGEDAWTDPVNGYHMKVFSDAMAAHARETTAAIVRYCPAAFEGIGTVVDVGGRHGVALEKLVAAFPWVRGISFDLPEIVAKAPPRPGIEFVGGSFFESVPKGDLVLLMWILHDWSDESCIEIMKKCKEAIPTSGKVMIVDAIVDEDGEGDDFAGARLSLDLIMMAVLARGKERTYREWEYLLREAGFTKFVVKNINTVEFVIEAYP
# T1 sequence (Q6VMV8 whole entry F133A): as the sequence (Q6VMV8 whole entry S142A) above, with F133A, A142S counted along it
Structure (SMILES),"whole-cell conversion, HPLC (MpOMT [1])","whole-cell conversion, HPLC (MpOMT [2])","whole-cell conversion, HPLC (trThF3′H with CPR)"
O=C1C[C@@H](c2ccc(O)c(O)c2)Oc2cc(O)cc(O)c21 [(2S)-eriodictyol],"three mutants (F115A, F133A, and S142A), which displayed significantly higher conversion rates","three mutants (F115A, F133A, and S142A), which displayed significantly higher conversion rates",
O=C1C[C@@H](c2ccc(O)cc2)Oc2cc(O)cc(O)c21 [(2S)-naringenin],,,the one harboring trThF3′H and CPR exhibited the highest (2S)-eriodictyol production
